Results on 8 test systems are retold here after the supplement of paper PMC6045584.

Compound in one test: Cc1c(N)nc([C@H](CC(N)=O)NC[C@H](N)C(N)=O)nc1C(=O)N[C@H](C(=O)N[C@H](C)[C@@H](O)[C@H](C)C(=O)N[C@H](C(=O)NCCc1nc(-c2nc(C(=O)NCCC[S+](C)C)cs2)cs1)[C@@H](C)O)[C@@H](OC1OC(CO)C(O)C(O)C1OC1OC(CO)C(O)C(OC(N)=O)C1O)c1cnc[nH]1 [BLEOMYCIN]
Kind of test: surviving fraction relative to DMSO-only wells; higher = less growth inhibition. The note with it: exposure time: 5 days. In short, it runs like this:
(§1)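 Log-phase tumour cell lines were seeded at 250–500 cells per well in 384-well plates. After 24 hours they were exposed continuously for five days to inhibitors at 0.5, 1, 5, 10, 50, 100, 500 and 1000 nM. Viability was read by CellTiter-Glo luminescence after 10 minutes at room temperature, and surviving fraction is luminescence normalised to the median of DMSO-only wells. Each line was screened three times and kept only if replicate Pearson r >0.7 and median Z' >0.3.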

Compound in another test: C=CCn1c(=O)c2cnc(Nc3ccc(N4CCN(C)CC4)cc3)nc2n1-c1cccc(C(C)(C)O)n1 [MK-1775]
The test is described as above. Particulars: exposure time: 5 days. In short, it runs like this: as §1

± gives the standard deviation of the averaged measurements.

With SG32 HEADNECK, the surviving fraction in the test with BLEOMYCIN (0.5 nM) was 0.921 ± 0.32; in the test with BLEOMYCIN (1 nM) it was 0.967 ± 0.23; with BLEOMYCIN (5 nM), 0.818 ± 0.069; in the test with BLEOMYCIN (10 nM) it was 0.825 ± 0.17; with BLEOMYCIN (50 nM), 0.824 ± 0.071; in the test with BLEOMYCIN (100 nM), 0.698 ± 0.048. Further, the surviving fraction with BLEOMYCIN (500 nM) turned out to be 0.593 ± 0.094; with BLEOMYCIN (1000 nM), 0.427 ± 0.05; with MK-1775 (0.5 nM), 1.25 ± 0.072; in the test with MK-1775 (1 nM) it was 1.43 ± 0.26; in the test with MK-1775 (5 nM), 1.13 ± 0.19; in the test with MK-1775 (10 nM), 1.14 ± 0.2. The surviving fraction is 0.852 ± 0.074 with MK-1775 (50 nM), 0.476 ± 0.037 in the test with MK-1775 (100 nM), 0.22 ± 0.038 with MK-1775 (500 nM) and 0.19 ± 0.0027 in the test with MK-1775 (1000 nM).
Turning to MDAMB157 BREAST, the surviving fraction with BLEOMYCIN (0.5 nM) is 0.89 ± 0.033; with BLEOMYCIN (1 nM), 0.915 ± 0.045; in the test with BLEOMYCIN (5 nM) it was 0.788 ± 0.033; with BLEOMYCIN (10 nM), 0.863 ± 0.025; in the test with BLEOMYCIN (50 nM), 0.815 ± 0.047; with BLEOMYCIN (100 nM) it was 0.736 ± 0.07. For the same test system, the surviving fraction amounted to 0.476 ± 0.016 in the test with BLEOMYCIN (500 nM); 0.288 ± 0.056 with BLEOMYCIN (1000 nM); 0.835 ± 0.1 with MK-1775 (0.5 nM); 0.95 ± 0.075 with MK-1775 (1 nM); 0.94 ± 0.075 with MK-1775 (5 nM); 0.966 ± 0.096 with MK-1775 (10 nM). The surviving fraction is 0.522 ± 0.045 with MK-1775 (50 nM), 0.278 ± 0.067 with MK-1775 (100 nM), 0.0617 ± 0.015 with MK-1775 (500 nM) and 0.0613 ± 0.0072 in the test with MK-1775 (1000 nM).
As to HCC1395 BREAST, the surviving fraction was 0.865 ± 0.04 with BLEOMYCIN (0.5 nM); 0.881 ± 0.14 with BLEOMYCIN (1 nM); 0.84 ± 0.1 in the test with BLEOMYCIN (5 nM); 0.902 ± 0.042 in the test with BLEOMYCIN (10 nM); 0.823 ± 0.12 with BLEOMYCIN (50 nM); 0.872 ± 0.074 in the test with BLEOMYCIN (100 nM). Also, the surviving fraction was determined as 0.761 ± 0.12 with BLEOMYCIN (500 nM); 0.73 ± 0.065 in the test with BLEOMYCIN (1000 nM); 0.885 ± 0.071 with MK-1775 (0.5 nM); 1.169 ± 0.0022 with MK-1775 (1 nM); 1.03 ± 0.2 in the test with MK-1775 (5 nM); 1.14 ± 0.12 in the test with MK-1775 (10 nM). Also, the surviving fraction with MK-1775 (50 nM) was 0.935 ± 0.1; with MK-1775 (100 nM) it was 0.931 ± 0.12; with MK-1775 (500 nM), 0.741 ± 0.11; with MK-1775 (1000 nM) it was 0.618 ± 0.083.
As to SIHA CERVIX, the surviving fraction with BLEOMYCIN (0.5 nM) was 0.959 ± 0.083; in the test with BLEOMYCIN (1 nM) it was 0.957 ± 0.017; in the test with BLEOMYCIN (5 nM), 1.02 ± 0.042; with BLEOMYCIN (10 nM) it was 1.02 ± 0.046; with BLEOMYCIN (50 nM), 1.08 ± 0.071; with BLEOMYCIN (100 nM), 1.08 ± 0.059. Moreover, the surviving fraction in the test with BLEOMYCIN (500 nM) was 0.961 ± 0.053; with BLEOMYCIN (1000 nM) it was 0.967 ± 0.024; in the test with MK-1775 (0.5 nM), 1.08 ± 0.03; in the test with MK-1775 (1 nM), 1.04 ± 0.054; in the test with MK-1775 (5 nM), 1.09 ± 0.066; in the test with MK-1775 (10 nM), 1.08 ± 0.039. For the same test system, the surviving fraction with MK-1775 (50 nM) was determined as 1.17 ± 0.085; in the test with MK-1775 (100 nM) it was 1.16 ± 0.057; in the test with MK-1775 (500 nM) it was 0.277 ± 0.049; in the test with MK-1775 (1000 nM) it was 0.0987 ± 0.013.
Turning to MG63 BONE, the surviving fraction was found to be 0.861 ± 0.018 in the test with BLEOMYCIN (0.5 nM); 0.876 ± 0.018 with BLEOMYCIN (1 nM); 0.864 ± 0.025 in the test with BLEOMYCIN (5 nM); 0.829 ± 0.018 with BLEOMYCIN (10 nM); 0.831 ± 0.02 with BLEOMYCIN (50 nM); 0.64 ± 0.075 with BLEOMYCIN (100 nM). Further, the surviving fraction with BLEOMYCIN (500 nM) was 0.22 ± 0.035; with BLEOMYCIN (1000 nM), 0.132 ± 0.0027; with MK-1775 (0.5 nM), 1.02 ± 0.033; in the test with MK-1775 (1 nM) it was 0.999 ± 0.026; with MK-1775 (5 nM) it was 1.07 ± 0.027; with MK-1775 (10 nM), 1.056 ± 0.0072. Also, the surviving fraction with MK-1775 (50 nM) was 1.06 ± 0.053; with MK-1775 (100 nM), 1 ± 0.068; with MK-1775 (500 nM), 0.244 ± 0.025; with MK-1775 (1000 nM), 0.121 ± 0.0076.
On to HOSMNG BONE, for which the surviving fraction with BLEOMYCIN (0.5 nM) was found to be 0.966 ± 0.025; in the test with BLEOMYCIN (1 nM), 0.983 ± 0.011; with BLEOMYCIN (5 nM), 0.992 ± 0.015; in the test with BLEOMYCIN (10 nM), 1.01 ± 0.021; with BLEOMYCIN (50 nM), 1.05 ± 0.048; with BLEOMYCIN (100 nM) it was 1.03 ± 0.083. The surviving fraction with BLEOMYCIN (500 nM) was determined as 0.984 ± 0.029; in the test with BLEOMYCIN (1000 nM), 0.845 ± 0.035; with MK-1775 (0.5 nM), 1.04 ± 0.027; with MK-1775 (1 nM), 0.978 ± 0.061; in the test with MK-1775 (5 nM), 0.935 ± 0.091; with MK-1775 (10 nM), 0.977 ± 0.11. Further, the surviving fraction turned out to be 1.01 ± 0.072 with MK-1775 (50 nM), 1.07 ± 0.063 with MK-1775 (100 nM), 0.143 ± 0.013 in the test with MK-1775 (500 nM) and 0.059 ± 0.0076 with MK-1775 (1000 nM).
Turning to C33A CERVIX, the surviving fraction with BLEOMYCIN (0.5 nM) worked out at 0.925 ± 0.11; in the test with BLEOMYCIN (1 nM) it was 0.98 ± 0.039; in the test with BLEOMYCIN (5 nM), 0.984 ± 0.13; with BLEOMYCIN (10 nM) it was 0.827 ± 0.062; with BLEOMYCIN (50 nM) it was 0.435 ± 0.014; with BLEOMYCIN (100 nM), 0.334 ± 0.02. In addition, the surviving fraction in the test with BLEOMYCIN (500 nM) is 0.163 ± 0.015; with BLEOMYCIN (1000 nM), 0.124 ± 0.01; with MK-1775 (0.5 nM), 0.908 ± 0.063; in the test with MK-1775 (1 nM), 0.986 ± 0.15; with MK-1775 (5 nM) it was 1 ± 0.053; with MK-1775 (10 nM) it was 0.962 ± 0.11. Also, the surviving fraction in the test with MK-1775 (50 nM) amounted to 0.895 ± 0.073; with MK-1775 (100 nM) it was 0.491 ± 0.025; with MK-1775 (500 nM) it was 0.043 ± 0.02; in the test with MK-1775 (1000 nM), 0.0347 ± 0.0064.
As for BT20 BREAST, the surviving fraction was 0.766 ± 0.062 with BLEOMYCIN (0.5 nM); 0.742 ± 0.02 in the test with BLEOMYCIN (1 nM); 0.718 ± 0.045 with BLEOMYCIN (5 nM); 0.768 ± 0.06 in the test with BLEOMYCIN (10 nM); 0.849 ± 0.071 with BLEOMYCIN (50 nM); 0.688 ± 0.14 with BLEOMYCIN (100 nM). The surviving fraction with BLEOMYCIN (500 nM) was 0.48 ± 0.087; in the test with BLEOMYCIN (1000 nM) it was 0.353 ± 0.042; with MK-1775 (0.5 nM), 1.12 ± 0.23; in the test with MK-1775 (1 nM), 1.05 ± 0.19; with MK-1775 (5 nM), 1.06 ± 0.17; in the test with MK-1775 (10 nM), 1.04 ± 0.21. Moreover, the surviving fraction with MK-1775 (50 nM) amounted to 1.09 ± 0.3; with MK-1775 (100 nM), 0.972 ± 0.21; in the test with MK-1775 (500 nM), 0.162 ± 0.02; with MK-1775 (1000 nM), 0.0827 ± 0.021.
